Data taken from patent US20050009005A1, “Methods of using quantitative lipid metabolome data” (Lipomics Technologies, Inc., priority 2001, published 2005).
Read-outs that look alike come from different tables or passages of the source.

Test system: de novo fatty acid synthesis
[1] = Liver, CE, mean of treated mice
[2] = Liver, FFA, mean of treated mice
[3] = Liver, PC, mean of treated mice
[4] = Liver, PS/I, mean of treated mice
[5] = Liver, TAG, mean of treated mice
[6] = Plasma, CE, mean of treated mice
[7] = Plasma, FFA, mean of treated mice
[8] = Plasma, PC, mean of treated mice
[9] = Plasma, PL, mean of treated mice
[10] = Plasma, TAG, mean of treated mice

## CN(CCOc1ccc(CC2SC(=O)NC2=O)cc1)c1ccccn1 (stereo not drawn) [rosiglitazone]
[1]
  18:0: 204.4 nanomoles per gram
  18:1n7: 138.6 nanomoles per gram
  18:1n9: 1208.0 nanomoles per gram
  Saturates: 3147.2 nanomoles per gram
  Total n7: 817.0 nanomoles per gram
  Total n9: 1239.5 nanomoles per gram
  Total nMole of: 5830.7 nanomoles per gram
Liver, CL, mean
  14:0: 0.5 percentage of total fatty acids within each lipid class
  16:0: 5.7 percentage of total fatty acids within each lipid class
  16:1n7: 6.3 percentage of total fatty acids within each lipid class
  18:0: 3.6 percentage of total fatty acids within each lipid class
  18:1n7: 5.5 percentage of total fatty acids within each lipid class
  18:1n9: 10.0 percentage of total fatty acids within each lipid class
  Saturates: 10.6 percentage of total fatty acids within each lipid class
  Total: 100.0 percentage of total fatty acids within each lipid class
  Total n7: 11.8 percentage of total fatty acids within each lipid class
  Total n9: 10.5 percentage of total fatty acids within each lipid class
Liver, FFA, mean
  14:0: 1.0 percentage of total fatty acids within each lipid class
  16:0: 19.9 percentage of total fatty acids within each lipid class
  16:1n7: 9.4 percentage of total fatty acids within each lipid class
  18:0: 3.0 percentage of total fatty acids within each lipid class
  18:1n7: 6.4 percentage of total fatty acids within each lipid class
  18:1n9: 25.4 percentage of total fatty acids within each lipid class
  Saturates: 24.4 percentage of total fatty acids within each lipid class
  Total: 100.0 percentage of total fatty acids within each lipid class
  Total n7: 15.8 percentage of total fatty acids within each lipid class
  Total n9: 26.0 percentage of total fatty acids within each lipid class
[2]
  14:0: 236.5 nanomoles per gram
  16:0: 4507.0 nanomoles per gram
  16:1n7: 2121.2 nanomoles per gram
  18:0: 691.5 nanomoles per gram
  18:1n7: 1466.0 nanomoles per gram
  18:1n9: 5761.2 nanomoles per gram
  Saturates: 5541.5 nanomoles per gram
  Total n7: 3587.3 nanomoles per gram
  Total n9: 5909.9 nanomoles per gram
  Total nMole of: 22631.3 nanomoles per gram
Liver, PC, mean
  14:0: 0.2 percentage of total fatty acids within each lipid class
  16:0: 33.3 percentage of total fatty acids within each lipid class
  16:1n7: 1.7 percentage of total fatty acids within each lipid class
  18:0: 10.3 percentage of total fatty acids within each lipid class
  18:1n7: 4.6 percentage of total fatty acids within each lipid class
  18:1n9: 9.6 percentage of total fatty acids within each lipid class
  Saturates: 44.1 percentage of total fatty acids within each lipid class
  Total: 100.0 percentage of total fatty acids within each lipid class
  Total n7: 6.4 percentage of total fatty acids within each lipid class
  Total n9: 10.2 percentage of total fatty acids within each lipid class
[3]
  14:0: 43.2 nanomoles per gram
  16:0: 9572.4 nanomoles per gram
  16:1n7: 501.3 nanomoles per gram
  18:0: 2975.6 nanomoles per gram
  18:1n7: 1329.1 nanomoles per gram
  18:1n9: 2767.4 nanomoles per gram
  Saturates: 12686.5 nanomoles per gram
  Total n7: 1830.5 nanomoles per gram
  Total n9: 2932.3 nanomoles per gram
  Total nMole of: 14390.8 nanomoles per gram
Liver, PS/I, mean
  14:0: 0.2 percentage of total fatty acids within each lipid class
  16:0: 11.1 percentage of total fatty acids within each lipid class
  16:1n7: 0.7 percentage of total fatty acids within each lipid class
  18:0: 32.3 percentage of total fatty acids within each lipid class
  18:1n7: 2.9 percentage of total fatty acids within each lipid class
  18:1n9: 6.7 percentage of total fatty acids within each lipid class
  Saturates: 44.2 percentage of total fatty acids within each lipid class
  Total: 100.0 percentage of total fatty acids within each lipid class
  Total n7: 3.6 percentage of total fatty acids within each lipid class
  Total n9: 8.2 percentage of total fatty acids within each lipid class
[4]
  14:0: 18.9 nanomoles per gram
  16:0: 1158.5 nanomoles per gram
  16:1n7: 76.0 nanomoles per gram
  18:0: 3348.9 nanomoles per gram
  18:1n7: 303.2 nanomoles per gram
  18:1n9: 693.2 nanomoles per gram
  Saturates: 4590.1 nanomoles per gram
  Total n7: 379.2 nanomoles per gram
  Total n9: 854.3 nanomoles per gram
  Total nMole of: 5196.5 nanomoles per gram
Liver, TAG, mean
  14:0: 0.5 percentage of total fatty acids within each lipid class
  16:0: 27.1 percentage of total fatty acids within each lipid class
  16:1n7: 8.1 percentage of total fatty acids within each lipid class
  18:0: 0.6 percentage of total fatty acids within each lipid class
  18:1n7: 5.8 percentage of total fatty acids within each lipid class
  18:1n9: 39.6 percentage of total fatty acids within each lipid class
  Saturates: 28.6 percentage of total fatty acids within each lipid class
  Total: 100.0 percentage of total fatty acids within each lipid class
  Total n7: 13.9 percentage of total fatty acids within each lipid class
  Total n9: 40.5 percentage of total fatty acids within each lipid class
[5]
  14:0: 2450.8 nanomoles per gram
  16:0: 122013.9 nanomoles per gram
  16:1n7: 36411.0 nanomoles per gram
  18:0: 2665.4 nanomoles per gram
  18:1n7: 26279.6 nanomoles per gram
  18:1n9: 179035.8 nanomoles per gram
  Saturates: 129102.3 nanomoles per gram
  Total n7: 62690.6 nanomoles per gram
  Total n9: 183105.4 nanomoles per gram
  Total nMole of: 150412.8 nanomoles per gram
Plasma, CE, mean
  14:0: 0.6 percentage of total fatty acids within each lipid class
  16:0: 3.7 percentage of total fatty acids within each lipid class
  16:1n7: 6.5 percentage of total fatty acids within each lipid class
  18:0: 0.2 percentage of total fatty acids within each lipid class
  18:1n7: 0.7 percentage of total fatty acids within each lipid class
  18:1n9: 6.1 percentage of total fatty acids within each lipid class
  Saturates: 4.9 percentage of total fatty acids within each lipid class
  Total: 100.0 percentage of total fatty acids within each lipid class
  Total n7: 7.3 percentage of total fatty acids within each lipid class
  Total n9: 6.6 percentage of total fatty acids within each lipid class
[6]
  14:0: 16.8 nanomoles per gram
  16:0: 113.0 nanomoles per gram
  16:1n7: 200.8 nanomoles per gram
  18:0: 7.1 nanomoles per gram
  18:1n7: 22.7 nanomoles per gram
  18:1n9: 189.1 nanomoles per gram
  Saturates: 148.8 nanomoles per gram
  Total n7: 223.4 nanomoles per gram
  Total n9: 202.2 nanomoles per gram
  Total nMole of: 3058.7 nanomoles per gram
Plasma, FFA, mean
  14:0: 3.3 percentage of total fatty acids within each lipid class
  16:0: 30.9 percentage of total fatty acids within each lipid class
  16:1n7: 8.3 percentage of total fatty acids within each lipid class
  18:0: 8.1 percentage of total fatty acids within each lipid class
  18:1n7: 3.2 percentage of total fatty acids within each lipid class
  18:1n9: 18.4 percentage of total fatty acids within each lipid class
  Saturates: 43.8 percentage of total fatty acids within each lipid class
  Total: 100.0 percentage of total fatty acids within each lipid class
  Total n9: 18.9 percentage of total fatty acids within each lipid class
[7]
  14:0: 15.9 nanomoles per gram
  16:0: 148.4 nanomoles per gram
  16:1n7: 41.4 nanomoles per gram
  18:0: 37.3 nanomoles per gram
  18:1n7: 15.2 nanomoles per gram
  18:1n9: 90.2 nanomoles per gram
  Saturates: 208.8 nanomoles per gram
  Total n7: 56.7 nanomoles per gram
  Total n9: 92.7 nanomoles per gram
  Total nMole of: 478.4 nanomoles per gram
Plasma, PC, mean
  14:0: 0.1 percentage of total fatty acids within each lipid class
  16:0: 30.8 percentage of total fatty acids within each lipid class
  16:1n7: 0.8 percentage of total fatty acids within each lipid class
  18:0: 13.0 percentage of total fatty acids within each lipid class
  18:1n7: 4.1 percentage of total fatty acids within each lipid class
  18:1n9: 9.4 percentage of total fatty acids within each lipid class
  Saturates: 44.6 percentage of total fatty acids within each lipid class
  Total: 100.0 percentage of total fatty acids within each lipid class
  Total n7: 4.9 percentage of total fatty acids within each lipid class
  Total n9: 9.9 percentage of total fatty acids within each lipid class
[8]
  14:0: 5.7 nanomoles per gram
  16:0: 1246.9 nanomoles per gram
  16:1n7: 34.2 nanomoles per gram
  18:0: 528.9 nanomoles per gram
  18:1n7: 164.8 nanomoles per gram
  18:1n9: 383.4 nanomoles per gram
  Saturates: 1804.9 nanomoles per gram
  Total n7: 199.0 nanomoles per gram
  Total n9: 405.1 nanomoles per gram
  Total nMole of: 2027.9 nanomoles per gram
Plasma, PL, mean
  14:0: 0.2 percentage of total fatty acids within each lipid class
  16:0: 30.9 percentage of total fatty acids within each lipid class
  16:1n7: 0.9 percentage of total fatty acids within each lipid class
  18:0: 11.9 percentage of total fatty acids within each lipid class
  18:1n7: 3.9 percentage of total fatty acids within each lipid class
  18:1n9: 7.4 percentage of total fatty acids within each lipid class
  Saturates: 43.9 percentage of total fatty acids within each lipid class
  Total: 100.0 percentage of total fatty acids within each lipid class
  Total n7: 4.8 percentage of total fatty acids within each lipid class
  Total n9: 8.7 percentage of total fatty acids within each lipid class
[9]
  14:0: 7.7 nanomoles per gram
  16:0: 1533.6 nanomoles per gram
  16:1n7: 43.0 nanomoles per gram
  18:0: 604.7 nanomoles per gram
  18:1n7: 195.0 nanomoles per gram
  18:1n9: 384.8 nanomoles per gram
  Saturates: 2191.4 nanomoles per gram
  Total n7: 238.0 nanomoles per gram
  Total n9: 449.9 nanomoles per gram
  Total nMole of: 2496.5 nanomoles per gram
Plasma, TAG, mean
  14:0: 1.2 percentage of total fatty acids within each lipid class
  16:0: 21.9 percentage of total fatty acids within each lipid class
  16:1n7: 7.0 percentage of total fatty acids within each lipid class
  18:0: 1.8 percentage of total fatty acids within each lipid class
  18:1n7: 4.5 percentage of total fatty acids within each lipid class
  18:1n9: 27.2 percentage of total fatty acids within each lipid class
  Saturates: 25.8 percentage of total fatty acids within each lipid class
  Total: 100.0 percentage of total fatty acids within each lipid class
  Total n9: 27.9 percentage of total fatty acids within each lipid class
[10]
  14:0: 17.1 nanomoles per gram
  16:0: 315.8 nanomoles per gram
  16:1n7: 102.5 nanomoles per gram
  18:0: 24.9 nanomoles per gram
  18:1n7: 66.1 nanomoles per gram
  18:1n9: 398.8 nanomoles per gram
  Saturates: 368.7 nanomoles per gram
  Total n7: 168.5 nanomoles per gram
  Total n9: 410.2 nanomoles per gram
  Total nMole of: 484.3 nanomoles per gram
